≈ marks a conversion by molar mass, not a printed value.
Tests used:
Streptococcus pyogenes [1] = assay: Antimicrobial activity against Streptococcus pyogenes after 24 hrs by broth microdilution method; assay type: functional, organism-based
Salmonella typhimurium [2] = assay: Antimicrobial activity against Salmonella Typhimurium after 24 hrs by broth microdilution method; assay type: functional, organism-based, Salmonella enterica subsp. enterica serovar Typhimurium; conditions: Salmonella enterica
Escherichia coli [3] = assay: Antimicrobial activity against Escherichia coli after 24 hrs by broth microdilution method; assay type: functional, organism-based
Escherichia coli [4] = assay: Antimicrobial activity against Escherichia coli at 200 ug/mL after 24 hrs by disk diffusion method; assay type: functional; conditions: read-out: IZ
Salmonella typhimurium [5] = assay: Antimicrobial activity against Salmonella Typhimurium at 200 ug/mL after 24 hrs by disk diffusion method; assay type: functional, Salmonella enterica subsp. enterica serovar Typhimurium; conditions: Salmonella enterica, read-out: IZ
Staphylococcus aureus [6] = assay: Antimicrobial activity against Staphylococcus aureus at 200 ug/mL after 24 hrs by disk diffusion method; assay type: functional; conditions: read-out: IZ
Streptococcus pyogenes [7] = assay: Antimicrobial activity against Streptococcus pyogenes at 200 ug/mL after 24 hrs by disk diffusion method; assay type: functional; conditions: read-out: IZ
Staphylococcus aureus [8] = assay: Antimicrobial activity against Staphylococcus aureus after 24 hrs by broth microdilution method; assay type: functional, organism-based

IC50 (Streptococcus pyogenes [1])	MIC (Streptococcus pyogenes [1])	IC50 (Salmonella typhimurium [2])	MIC (Salmonella typhimurium [2])	IC50 (Escherichia coli [3])	MIC (Escherichia coli [3])	IC50 (Staphylococcus aureus [8])	MIC (Staphylococcus aureus [8])	Structure (SMILES)	zone of inhibition at 200 µg/mL (Escherichia coli [4])	zone of inhibition at 200 µg/mL (Salmonella typhimurium [5])	zone of inhibition at 200 µg/mL (Staphylococcus aureus [6])	zone of inhibition at 200 µg/mL (Streptococcus pyogenes [7])
0.54 µg/mL (≈ 0.951 µM)	0.78 µg/mL (≈ 1.37 µM)	0.48 µg/mL (≈ 0.845 µM)	0.78 µg/mL (≈ 1.37 µM)	0.26 µg/mL (≈ 0.458 µM)	0.39 µg/mL (≈ 0.687 µM)	0.48 µg/mL (≈ 0.845 µM)	0.78 µg/mL (≈ 1.37 µM)	CC(C)CCC[C@@H](C)[C@H]1CC[C@H]2[C@@H]3CC=C4C/C(=N/Nc5nc6nc7ccccc7nc6o5)CC[C@]4(C)[C@H]3CC[C@]12C	23.6 mm	24.5 mm	22.5 mm	23.4 mm
3.68 µg/mL (≈ 8.33 µM)	6.25 µg/mL (≈ 14.1 µM)	1.94 µg/mL (≈ 4.39 µM)	3.12 µg/mL (≈ 7.06 µM)	1.88 µg/mL (≈ 4.26 µM)	3.12 µg/mL (≈ 7.06 µM)	3.65 µg/mL (≈ 8.26 µM)	6.25 µg/mL (≈ 14.1 µM)	CC(C)CCC[C@@H](C)[C@H]1CC[C@H]2[C@@H]3CC=C4C/C(=N/NC(N)=O)CC[C@]4(C)[C@H]3CC[C@]12C	14.2 mm	15.5 mm	14.6 mm	13.4 mm
3.66 µg/mL (≈ 8 µM)	6.25 µg/mL (≈ 13.7 µM)	3.72 µg/mL (≈ 8.13 µM)	6.25 µg/mL (≈ 13.7 µM)	3.68 µg/mL (≈ 8.04 µM)	6.25 µg/mL (≈ 13.7 µM)	3.68 µg/mL (≈ 8.04 µM)	6.25 µg/mL (≈ 13.7 µM)	CC(C)CCC[C@@H](C)[C@H]1CC[C@H]2[C@@H]3CC=C4C/C(=N/NC(N)=S)CC[C@]4(C)[C@H]3CC[C@]12C	15.5 mm	14.5 mm	15.2 mm	13.5 mm
0.52 µg/mL (≈ 0.891 µM)	0.78 µg/mL (≈ 1.34 µM)	0.28 µg/mL (≈ 0.48 µM)	0.39 µg/mL (≈ 0.668 µM)	0.24 µg/mL (≈ 0.411 µM)	0.39 µg/mL (≈ 0.668 µM)	0.54 µg/mL (≈ 0.925 µM)	0.78 µg/mL (≈ 1.34 µM)	CC(C)CCC[C@@H](C)[C@H]1CC[C@H]2[C@@H]3CC=C4C/C(=N/Nc5nc6nc7ccccc7nc6s5)CC[C@]4(C)[C@H]3CC[C@]12C	21.4 mm	20.4 mm	21.2 mm	23.2 mm
1.8 µg/mL (≈ 4.93 µM)	3.12 µg/mL (≈ 8.54 µM)	1.85 µg/mL (≈ 5.06 µM)	3.12 µg/mL (≈ 8.54 µM)	1.9 µg/mL (≈ 5.2 µM)	3.12 µg/mL (≈ 8.54 µM)	1.82 µg/mL (≈ 4.98 µM)	3.12 µg/mL (≈ 8.54 µM)	CC1(C)S[C@@H]2[C@H](NC(=O)[C@H](N)c3ccc(O)cc3)C(=O)N2[C@H]1C(=O)O [AMOXICILLIN]	20 mm	17.2 mm	17 mm	18.2 mm
–	–	–	–	–	–	–	–	CC(C)CCC[C@@H](C)[C@H]1CC[C@H]2[C@@H]3CC=C4C[C@@H](O)CC[C@]4(C)[C@H]3CC[C@]12C [CHOLESTEROL]	9 mm	8.2 mm	9.2 mm	7.8 mm

— ChEMBL document CHEMBL1152854, “Synthesis, characterization and in vitro antibacterial activity of new steroidal 5-en-3-oxazolo and thiazoloquinoxaline” (Eur J Med Chem, 2008)
